According to ChEMBL document CHEMBL3045331, “A clubbed quinazolinone and 4-thiazolidinone as potential antimicrobial agents” (2012):
≈ marks a conversion by molar mass, not a printed value.

Columns and labels:
Format in all cases: functional
[1] = test system: Candida albicans; assay: Antifungal activity against Candida albicans MTCC 227 after 48 hr by spot subculture method; settings: MTCC 227, 48 h
[2] = test system: Pseudomonas aeruginosa; assay: Antibacterial activity against Pseudomonas aeruginosa MTCC-1688 after 24 hr by serial broth dilution method; settings: MTCC-1688, 24 h
[3] = test system: Staphylococcus aureus; assay: Antibacterial activity against Staphylococcus aureus MTCC-96 after 24 hr by serial broth dilution method; settings: MTCC-96, 24 h
[4] = test system: Aspergillus clavatus; assay: Antifungal activity against Aspergillus clavatus MTCC 1323 after 48 hr by spot subculture method; settings: MTCC 1323, 48 h
[5] = test system: Aspergillus niger; assay: Antifungal activity against Aspergillus niger MTCC 282 after 48 hr by spot subculture method; settings: MTCC 282, 48 h
[6] = test system: Escherichia coli; assay: Antibacterial activity against Escherichia coli MTCC 443 after 24 hr by serial broth dilution method; settings: MTCC 443, 24 h
[7] = test system: Streptococcus pyogenes; assay: Antibacterial activity against Streptococcus pyogenes MTCC-442 after 24 hr by serial broth dilution method; settings: MTCC-442, 24 h

Compound | MIC99 [1] [µg/mL] | MIC99 [2] [µg/mL] | MIC99 [3] [µg/mL] | MIC99 [4] [µg/mL] | MIC99 [5] [µg/mL] | MIC99 [6] [µg/mL] | MIC99 [7] [µg/mL]
Cc1ccc(-c2nc3ccccc3c(=O)n2-c2ccc(C(=O)NN3C(=O)/C(=C/c4ccc(Cl)cc4)SC3c3ccc(O)cc3)cc2)cc1 (stereo not given) | 100 (≈ 149 µM) | 100 (≈ 149 µM) | 500 (≈ 745 µM) | 1000 (≈ 1490 µM) | 1000 (≈ 1490 µM) | 50 (≈ 74.5 µM) | 500 (≈ 745 µM)
Cc1ccc(-c2nc3ccccc3c(=O)n2-c2ccc(C(=O)NN3C(=O)/C(=C/c4ccc5ccccc5c4O)SC3c3ccc(O)cc3)cc2)cc1 (stereo not given) | 100 (≈ 142 µM) | 50 (≈ 71.1 µM) | 100 (≈ 142 µM) | 100 (≈ 142 µM) | 1000 (≈ 1420 µM) | 100 (≈ 142 µM) | 100 (≈ 142 µM)
Cc1ccc(-c2nc3ccccc3c(=O)n2-c2ccc(C(=O)NN3C(=O)/C(=C/c4ccc(F)cc4)SC3c3ccc(O)cc3)cc2)cc1 (stereo not given) | 100 (≈ 153 µM) | 50 (≈ 76.4 µM) | 100 (≈ 153 µM) | 1000 (≈ 1530 µM) | 500 (≈ 764 µM) | 500 (≈ 764 µM) | 250 (≈ 382 µM)
Cc1ccc(-c2nc3ccccc3c(=O)n2-c2ccc(C(=O)NN3C(=O)/C(=C/c4ccc(O)cc4)SC3c3ccc(O)cc3)cc2)cc1 (stereo not given) | 1000 (≈ 1530 µM) | 500 (≈ 766 µM) | 100 (≈ 153 µM) | 100 (≈ 153 µM) | 1000 (≈ 1530 µM) | 100 (≈ 153 µM) | 50 (≈ 76.6 µM)
Cc1ccc(-c2nc3ccccc3c(=O)n2-c2ccc(C(=O)NN3C(=O)/C(=C/c4cccc([N+](=O)[O-])c4)SC3c3ccc(O)cc3)cc2)cc1 (stereo not given) | 100 (≈ 147 µM) | 100 (≈ 147 µM) | 50 (≈ 73.3 µM) | 500 (≈ 733 µM) | 100 (≈ 147 µM) | 25 (≈ 36.7 µM) | 500 (≈ 733 µM)
COc1ccccc1/C=C1\SC(c2ccc(O)cc2)N(NC(=O)c2ccc(-n3c(-c4ccc(C)cc4)nc4ccccc4c3=O)cc2)C1=O (stereo not given) | 500 (≈ 750 µM) | 100 (≈ 150 µM) | 100 (≈ 150 µM) | 500 (≈ 750 µM) | 500 (≈ 750 µM) | 500 (≈ 750 µM) | 500 (≈ 750 µM)
COc1cc(/C=C2\SC(c3ccc(O)cc3)N(NC(=O)c3ccc(-n4c(-c5ccc(C)cc5)nc5ccccc5c4=O)cc3)C2=O)cc(OC)c1OC (stereo not given) | 1000 (≈ 1380 µM) | 100 (≈ 138 µM) | 100 (≈ 138 µM) | 1000 (≈ 1380 µM) | 100 (≈ 138 µM) | 100 (≈ 138 µM) | 200 (≈ 275 µM)
Cc1ccc(-c2nc3ccccc3c(=O)n2-c2ccc(C(=O)NN3C(=O)/C(=C/c4ccc(N(C)C)cc4)SC3c3ccc(O)cc3)cc2)cc1 (stereo not given) | 1000 (≈ 1470 µM) | 200 (≈ 294 µM) | 1000 (≈ 1470 µM) | 500 (≈ 736 µM) | 100 (≈ 147 µM) | 25 (≈ 36.8 µM) | 100 (≈ 147 µM)
CC1(C)S[C@@H]2[C@H](NC(=O)[C@H](N)c3ccccc3)C(=O)N2[C@H]1C(=O)O [AMPICILLIN] | – | 100 (≈ 286 µM) | 250 (≈ 715 µM) | – | – | 100 (≈ 286 µM) | 100 (≈ 286 µM)
COC1=CC(=O)C[C@@H](C)[C@]12Oc1c(Cl)c(OC)cc(OC)c1C2=O [GRISEOFULVIN] | 500 (≈ 1420 µM) | – | – | 100 (≈ 283 µM) | 100 (≈ 283 µM) | – | –

Now from value to compound:

MIC99 [1] [µg/mL] | MIC99 [2] [µg/mL] | MIC99 [3] [µg/mL] | MIC99 [4] [µg/mL] | MIC99 [5] [µg/mL] | MIC99 [6] [µg/mL] | MIC99 [7] [µg/mL] | Compound
500 (≈ 683 µM) | 500 (≈ 683 µM) | 250 (≈ 342 µM) | 100 (≈ 137 µM) | 1000 (≈ 1370 µM) | 500 (≈ 683 µM) | 100 (≈ 137 µM) | Cc1ccc(-c2nc3ccccc3c(=O)n2-c2ccc(C(=O)NN3C(=O)/C(=C/c4cc(Br)ccc4O)SC3c3ccc(O)cc3)cc2)cc1 (stereo not given)
500 (≈ 709 µM) | 200 (≈ 283 µM) | 100 (≈ 142 µM) | 1000 (≈ 1420 µM) | 100 (≈ 142 µM) | 50 (≈ 70.9 µM) | 100 (≈ 142 µM) | Cc1ccc(-c2nc3ccccc3c(=O)n2-c2ccc(C(=O)NN3C(=O)/C(=C/c4c(Cl)cccc4Cl)SC3c3ccc(O)cc3)cc2)cc1 (stereo not given)
1000 (≈ 1490 µM) | 500 (≈ 745 µM) | 500 (≈ 745 µM) | 1000 (≈ 1490 µM) | 1000 (≈ 1490 µM) | 200 (≈ 298 µM) | 100 (≈ 149 µM) | Cc1ccc(-c2nc3ccccc3c(=O)n2-c2ccc(C(=O)NN3C(=O)/C(=C/c4ccccc4Cl)SC3c3ccc(O)cc3)cc2)cc1 (stereo not given)
1000 (≈ 1500 µM) | 500 (≈ 750 µM) | 500 (≈ 750 µM) | 100 (≈ 150 µM) | 100 (≈ 150 µM) | 100 (≈ 150 µM) | 500 (≈ 750 µM) | COc1ccc(/C=C2\SC(c3ccc(O)cc3)N(NC(=O)c3ccc(-n4c(-c5ccc(C)cc5)nc5ccccc5c4=O)cc3)C2=O)cc1 (stereo not given)
500 (≈ 732 µM) | 200 (≈ 293 µM) | 250 (≈ 366 µM) | 500 (≈ 732 µM) | 1000 (≈ 1460 µM) | 100 (≈ 146 µM) | 500 (≈ 732 µM) | COc1ccc(/C=C2\SC(c3ccc(O)cc3)N(NC(=O)c3ccc(-n4c(-c5ccc(C)cc5)nc5ccccc5c4=O)cc3)C2=O)c(O)c1 (stereo not given)
500 (≈ 785 µM) | 500 (≈ 785 µM) | 500 (≈ 785 µM) | 1000 (≈ 1570 µM) | 1000 (≈ 1570 µM) | 200 (≈ 314 µM) | 100 (≈ 157 µM) | Cc1ccc(-c2nc3ccccc3c(=O)n2-c2ccc(C(=O)NN3C(=O)/C(=C/c4ccccc4)SC3c3ccc(O)cc3)cc2)cc1 (stereo not given)
